According to ChEMBL document CHEMBL4715868, “Neurotrophic isoindolinones from the fruiting bodies of Hericium erinaceus” (2021):
Active and inactive are the calls of the source. No cut-off for these calls is given here.

How the values were obtained:
[1] = Neurotrophic activity in […] N2a cells assessed as increase in NGF-mediated neurite outgrowth at 10 uM incubated for 24 hrs by cell imaging analysis relative to control; type: functional
C6 [2] = assay: Upregulation of BDNF production in rat C6 cells co-cultured with N2a cells at 10 to 50 uM incubated for 24 hrs followed by cell transfer to N2a cells by Western blot analysis; type: functional, cell-based; conditions: dose 10-50 µM
C6 [3] = assay: Upregulation of NGF production in rat C6 cells co-cultured with N2a cells at 10 to 50 uM incubated for 24 hrs followed by cell transfer to N2a cells by Western blot analysis; type: functional, cell-based; conditions: dose 10-50 µM
[4] = Neurotrophic activity in […] N2a cells assessed as increase in NGF-mediated neurite outgrowth at 25 uM incubated for 24 hrs by cell imaging analysis relative to control; type: functional
C6 [5] = assay: Upregulation of Syp production in rat C6 cells co-cultured with N2a cells at 10 to 50 uM incubated for 24 hrs followed by cell transfer to N2a cells by Western blot analysis; type: functional, cell-based; conditions: dose 10-50 µM
C6 [6] = assay: Neurotrophic activity in rat C6 cells assessed as NGF production at 10 to 50 uM incubated for 24 hrs by ELISA; type: functional, cell-based; conditions: dose 10-50 µM

| SMILES | Activity [1] [%] | Activity (C6 [2]) | Activity (C6 [3]) | Activity [4] [%] | Activity (C6 [5]) | Activity (C6 [6]) |
| --- | --- | --- | --- | --- | --- | --- |
| CC1=C(/C=C/C(C)=C/C=C/C(C)=C/C(=O)O)C(C)(C)CCC1 [TRETINOIN] | 112.08 |  |  |  |  |  |
| COc1cc2c(c(O)c1CCO)CN(CCc1ccccc1)C2=O |  | Active | Active | 122.82 | inactive | Dose-dependent effect |
| COc1cc2c(c(O)c1C/C=C(\C)CCC=C(C)C)C(=O)N(CCc1ccccc1)C2 |  |  | Active | 116.82 | inactive | Active |
| COc1cc2c(c(O)c1C/C=C(\C)CC/C=C(\C)C(=O)O)COC2=O |  | Active | Active |  | inactive | Active |
